Measurements taken from paper PMC10473532 (PLOS ONE, 2023).
Like-named read-outs stand apart in the source and are kept apart here.

Legend:
human β3-AR = human β3-AR (Homo sapiens, UniProt P13945); assay: cAMP accumulation in CHO-K1 cells expressing human β3-AR; settings: for EC50: EC50 β3-AR; for β3-AR selectivity vs β1-AR / β3-AR selectivity vs β2-AR: comparison between EC50 values; for cAMP activity at Cmax,u / cAMP activity at Cmin,u: from dose-response curve, β3-AR cells TF 0.025 μg/well;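 as to all read-outs here: CHO-K1 cells transiently transfected with a β-AR expression plasmid, cAMP assayed roughly 24 h post-transfection, values derived from agonist concentration–response curves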
Experimental: (§1) Chinese hamster ovary (CHO)-K1 cells (DS Pharma Biomedical Co., Ltd., Osaka, Japan) were cultured in Ham’s F-12 medium containing 10% fetal bovine serum under 5% CO2 at 37°C. For cAMP assay, 2×10^5 cells/mL were inoculated onto a 96-well plate at 100 μL/well. […] The cells were cultured for about 24 h and used for β-AR transfection (see below). The DNA sequences encoding β1-AR (P08588.2), β2-AR (NP_000015.1), or β3-AR (NP_000016.1) were cloned into a pCI-Neo expression vector (Promega, WI, USA). CHO-K1 cells expressing β1-AR, β2-AR, or β3-AR were constructed by transfection with the appropriate plasmid DNA (β1-, β2-, or β3-AR) using Lipofectamine 2000 (Life Technologies Japan Ltd., Tokyo, Japan), according to the manufacturer’s instructions. […] Lipofectamine was diluted with Opti-MEM (0.5 μL Lipofectamine/25 μL Opti-MEM) and incubated for 5 min at room temperature. Solutions containing plasmid DNA and Lipofectamine, respectively, were mixed in equal amounts and incubated for 20 min at room temperature. […] The transfected CHO-K1 cells were then cultured for about 24 h and used for the following experiments. Similar experiments were performed after reducing the amounts of transfected plasmid DNA to 0.05 and 0.025 μg.
(§2) Cells that had been cultured for about 24 h after transfection were subjected to cAMP assay.
(§3) In the cAMP assay, the half-maximal effective concentration (EC50) value was calculated for each agonist based on its concentration–response curve using GraphPad Prism 6.0 nonlinear regression analysis.

human β1-AR = biological target: T1, human β1-AR (Homo sapiens, UniProt P08588); assay: cAMP accumulation in CHO-K1 cells expressing human β1-AR; assay type: cell-based;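 also: cells transiently transfected with a β1-AR expression plasmid, seeded in 96-well plates and assayed for cAMP about 24 h after transfection across agonist concentration–response curves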
T1 construct: expressed in transfected cells; host or cells: CHO-K1 cells, transient transfection with pCI-Neo plasmid (Lipofectamine 2000)
Experimental: as §1, §2, §3

[1] = unbound plasma concentrations at once-daily 50 mg clinical dose; assay type: in vivo, human; settings: for Cmax,u (unbound maximum plasma concentration): calculated from Cmax and plasma-protein-binding rate; for Cmin,u (unbound minimum plasma concentration): calculated from Cmin and plasma-protein-binding rate
β1-AR = biological target: β1-AR; set-up: method as in PMID 22430195; settings: binding assays; read-out: inhibition constant (Ki) β1-AR; cited from earlier work
β2-AR = biological target: β2-AR; set-up: method as in PMID 22430195; settings: binding assays; read-out: inhibition constant (Ki) β2-AR; cited from earlier work
β3-AR = settings: recent study comparing vibegron and mirabegron; cited from earlier work
[2] = test system: isolated rat bladder strips; set-up: method as in PMID 24213882; settings: cited from earlier work
human β2-AR = human β2-AR (Homo sapiens, UniProt P07550, E27Q/G16R); assay: cAMP accumulation in CHO-K1 cells expressing human β2-AR; settings: for Intrinsic activity β2-AR: isoproterenol max = 1.00
Experimental: as §1, §2, §3

[3] = 52-week, cited from earlier work
[4] = therapeutic doses, clinical trials; cited from earlier work
[5] = TF 0.05 μg/well, isoproterenol max = 1.00
[6] = TF 0.1 μg/well, 347 fmol/mg, concentration producing 50% of the maximal response induced by isoproterenol
[7] = CHO-K1, TF 0.1 μg/well plasmid DNA, cAMP accumulation, read-out: EC50 β1-AR
[8] = TF 0.025 μg/well, isoproterenol max = 1.00
[9] = TF 0.025 μg/well, read-out: EC50 β1-AR
[10] = TF 0.05 μg/well, read-out: EC50 β1-AR
[11] = TF 0.1 μg/well, maximal response of isoproterenol = 1.00
[12] = EC50 β2-AR, CHO-K1, TF 0.1 μg/well plasmid DNA, cAMP accumulation
[13] = CHO-K1, TF 0.1 μg/well plasmid DNA, cAMP accumulation

T1 sequence (P08588 whole entry): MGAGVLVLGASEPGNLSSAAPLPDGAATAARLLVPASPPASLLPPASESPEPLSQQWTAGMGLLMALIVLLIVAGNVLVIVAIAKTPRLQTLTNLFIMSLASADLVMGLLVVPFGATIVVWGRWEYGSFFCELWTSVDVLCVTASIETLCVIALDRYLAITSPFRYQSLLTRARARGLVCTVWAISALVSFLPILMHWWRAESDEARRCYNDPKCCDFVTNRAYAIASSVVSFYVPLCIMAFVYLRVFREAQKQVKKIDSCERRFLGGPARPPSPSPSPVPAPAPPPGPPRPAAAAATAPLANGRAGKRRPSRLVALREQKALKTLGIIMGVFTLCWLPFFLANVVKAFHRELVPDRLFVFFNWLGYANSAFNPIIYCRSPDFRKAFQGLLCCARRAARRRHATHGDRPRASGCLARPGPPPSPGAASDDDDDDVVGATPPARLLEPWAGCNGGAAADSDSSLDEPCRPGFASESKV
Chain of human β3-AR (P13945 whole entry): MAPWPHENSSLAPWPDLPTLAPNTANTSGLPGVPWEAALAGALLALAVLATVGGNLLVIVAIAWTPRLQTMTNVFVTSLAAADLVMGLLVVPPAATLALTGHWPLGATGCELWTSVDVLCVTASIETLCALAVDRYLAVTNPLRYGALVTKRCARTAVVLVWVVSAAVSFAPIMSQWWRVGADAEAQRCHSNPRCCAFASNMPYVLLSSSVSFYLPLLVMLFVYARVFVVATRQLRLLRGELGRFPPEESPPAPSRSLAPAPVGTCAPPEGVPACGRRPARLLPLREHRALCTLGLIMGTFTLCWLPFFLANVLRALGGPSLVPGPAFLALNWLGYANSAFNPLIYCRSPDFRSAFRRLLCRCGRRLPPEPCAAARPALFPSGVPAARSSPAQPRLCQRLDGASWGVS

SMILES | Iso50 (human β3-AR; TF 0.025 μg/well, 116 fmol/mg) [nM] | Iso50 (human β3-AR; TF 0.05 μg/well, 222 fmol/mg) [nM] | Intrinsic activity β3-AR (human β3-AR; [5]) | Iso50 (human β3-AR; [6]) [nM] | EC50 (human β1-AR; [7]) [nM] | Intrinsic activity β1-AR (human β1-AR; [8]) | EC50 (human β1-AR; [9]) [nM] | Intrinsic activity β1-AR (human β1-AR; [5]) | EC50 (human β1-AR; [10]) [nM] | Intrinsic activity β1-AR (human β1-AR; [11]) | EC50 (human β2-AR; [12]) [nM] | EC50 (human β2-AR; EC50 β2-AR, TF 0.025 μg/well) [nM] | EC50 (human β2-AR; EC50 β2-AR, TF 0.05 μg/well) [nM] | Intrinsic activity β2-AR (human β2-AR; TF 0.05 μg/well) | EC50 (human β3-AR; [13]) [nM] | EC50 (human β3-AR; TF 0.025 μg/well) [nM] | EC50 (human β3-AR; TF 0.05 μg/well) [nM] | Intrinsic activity β3-AR (human β3-AR; [11]) | β3-AR selectivity vs β1-AR (human β3-AR; TF 0.1 μg/well) | β3-AR selectivity vs β2-AR (human β3-AR; TF 0.1 μg/well) | further results
Nc1nc(CC(=O)Nc2ccc(CCNC[C@H](O)c3ccccc3)cc2)cs1 [Mirabegron, mirabegron] | 26.9 ± 7.51 | 4.45 ± 0.66 | (0.84 ± 0.04) | 1.32 ± 0.26 | 594 ± 122 | (0.25 ± 0.03) | > 10000 | (0.38 ± 0.02) | > 10000 | (0.59 ± 0.02) | 570 ± 235 | > 10000 | > 10000 | (0.31 ± 0.05) | 1.15 ± 0.24 | 4.17 ± 0.89 | 2.81 ± 0.6 | (0.94 ± 0.02) | 517 | 496 | Cmax,u (unbound maximum plasma concentration) [1]: 20 nM; Cmin,u (unbound minimum plasma concentration) [1]: 3 nM; Ki (β1-AR): 383 nM; Ki (β2-AR): 977 nM; IA (Emax) (β3-AR): 80.4%; attenuation of bladder relaxant effect after pretreatment, washout and fresh addition [2]: did not produce such attenuation; Iso50 (human β3-AR; TF 0.025 μg/well, 116 fmol/mg, listed as mirabegron): 26.9 nM; Intrinsic activity β3-AR (human β3-AR; TF 0.05 μg/well, isoproterenol max = 1.00, listed as mirabegron): 0.84; Intrinsic activity β3-AR (human β3-AR; TF 0.1 μg/well, maximal response of isoproterenol = 1.00, listed as mirabegron): 0.94; cAMP activity at Cmax,u (human β3-AR): about 53%; cAMP activity at Cmin,u (human β3-AR): about 27%
O=C(Nc1ccc(C[C@@H]2CC[C@H]([C@H](O)c3ccccc3)N2)cc1)[C@@H]1CCc2nccc(=O)n21 [Vibegron] | 22.5 ± 14.5 | 3.74 ± 0.73 | (1.00 ± 0.03) | 1.26 ± 0.29 | > 10000 | (0.00 ± 0.00) | > 10000 | (0.02 ± 0.01) | > 10000 | (0.10 ± 0.01) | > 10000 | > 10000 | > 10000 | (0.09 ± 0.03) | 1.26 ± 0.4 | 12.5 ± 2.41 | 3.83 ± 0.93 | (0.93 ± 0.05) | >7937 | >7937 | EC50 (human β1-AR; TF 0.1 μg/well, read-out: EC50 in cells expressing β1-ARs): > 10000 nM; β1-AR agonist activity (human β1-AR; cells TF 0.05 μg/well (245 fmol/mg)): no β1-AR agonist activity; Cmax,u (unbound maximum plasma concentration) [1]: 56 nM; Cmin,u (unbound minimum plasma concentration) [1]: 14 nM; IA (Emax) (β3-AR): 99.2%; attenuation of efficacy ([3]; 50 mg and 100 mg): not observed; vital signs (systolic blood pressure, diastolic blood pressure, and pulse) ([3]; supratherapeutic dose 100 mg): did not affect vital signs; incidence of increased blood pressure and hypertension [4]: does not affect the incidence of increased blood pressure and hypertension; EC50 (human β2-AR; EC50 in cells expressing β2-ARs, TF 0.1 μg/well): > 10000 nM; β2-AR agonist activity (human β2-AR; lowest β2-AR density 108 fmol/mg): no β2-AR agonist activity; Iso50 (human β3-AR; TF 0.025 μg/well, 116 fmol/mg, listed as vibegron): 22.5 nM; Intrinsic activity β3-AR (human β3-AR; TF 0.05 μg/well, isoproterenol max = 1.00, listed as vibegron): 1.00; β3-AR selectivity, higher than for β1-ARs (human β3-AR; TF 0.1 μg/well): > 7937 fold; β3-AR selectivity, higher than for β2-ARs (human β3-AR; TF 0.1 μg/well): > 7937 fold; Intrinsic activity β3-AR (human β3-AR; TF 0.1 μg/well, maximal response of isoproterenol = 1.00, listed as vibegron): 0.93; cAMP activity at Cmax,u (human β3-AR): about 82%; cAMP activity at Cmin,u (human β3-AR): ~59%
CC(Cc1ccc(O)cc1)NCC(O)c1cc(O)cc(O)c1 (centres unmarked) [fenoterol] |  |  |  |  |  |  |  |  |  |  |  |  |  |  |  |  |  |  |  |  | attenuation of bladder relaxant effect after pretreatment, washout and fresh addition [2]: marked attenuation of the bladder relaxant effect

More lines, main results first:

Iso50 (human β3-AR; TF 0.025 μg/well, 116 fmol/mg) [nM] | Iso50 (human β3-AR; TF 0.05 μg/well, 222 fmol/mg) [nM] | Intrinsic activity β3-AR (human β3-AR; [5]) | Iso50 (human β3-AR; [6]) [nM] | EC50 (human β1-AR; [7]) [nM] | Intrinsic activity β1-AR (human β1-AR; [8]) | EC50 (human β1-AR; [9]) [nM] | Intrinsic activity β1-AR (human β1-AR; [5]) | EC50 (human β1-AR; [10]) [nM] | Intrinsic activity β1-AR (human β1-AR; [11]) | EC50 (human β2-AR; [12]) [nM] | EC50 (human β2-AR; EC50 β2-AR, TF 0.025 μg/well) [nM] | EC50 (human β2-AR; EC50 β2-AR, TF 0.05 μg/well) [nM] | Intrinsic activity β2-AR (human β2-AR; TF 0.05 μg/well) | EC50 (human β3-AR; [13]) [nM] | EC50 (human β3-AR; TF 0.025 μg/well) [nM] | EC50 (human β3-AR; TF 0.05 μg/well) [nM] | Intrinsic activity β3-AR (human β3-AR; [11]) | β3-AR selectivity vs β1-AR (human β3-AR; TF 0.1 μg/well) | β3-AR selectivity vs β2-AR (human β3-AR; TF 0.1 μg/well) | SMILES | further results
78.0 ± 10.9 | 37.9 ± 6.40 | (0.96 ± 0.02) | 11.8 ± 1.78 |  |  |  |  |  |  |  |  |  |  |  |  |  |  |  |  | CC(C)NC[C@H](O)c1ccc(O)c(O)c1 [Isoproterenol, (–)-isoprenaline (+)-bitartrate] | 
943 ± 244 | 303 ± 60.7 | (1.00 ± 0.07) | 81.5 ± 15.4 | > 10000 | (0.04 ± 0.01) | > 10000 | (0.11 ± 0.02) | > 10000 | (0.33 ± 0.03) | 2270 ± 1340 | > 10000 | > 10000 | (0.32 ± 0.05) | 80.8 ± 12.6 | 1520 ± 950 | 398 ± 104 | (0.99 ± 0.02) | >124 | 28.1 | Cc1cc(OCC(=O)O)c(C)cc1CCN[C@@H](C)[C@H](O)c1ccc(O)cc1 [Ritobegron, ritobegron] | Iso50 (human β3-AR; TF 0.025 μg/well, 116 fmol/mg, listed as ritobegron): 943 nM; Intrinsic activity β3-AR (human β3-AR; TF 0.05 μg/well, isoproterenol max = 1.00, listed as ritobegron): 1.00; Intrinsic activity β3-AR (human β3-AR; TF 0.1 μg/well, maximal response of isoproterenol = 1.00, listed as ritobegron): 0.99
252 ± 78.4 | 119 ± 27.1 | (0.91 ± 0.10) | 31.0 ± 10.8 | 588 ± 105 | (0.25 ± 0.06) | > 10000 | (0.28 ± 0.04) | > 10000 | (0.60 ± 0.04) | > 10000 | > 10000 | > 10000 | (0.20 ± 0.02) | 27.6 ± 9.08 | 83.6 ± 29 | 85.1 ± 5.84 | (0.96 ± 0.03) | 21.3 | >362 | O=C(O)c1cccc(-c2cccc(NCCNC[C@H](O)c3cccc(Cl)c3)c2)c1 [Solabegron, solabegron] | Iso50 (human β3-AR; TF 0.025 μg/well, 116 fmol/mg, listed as solabegron): 252 nM; Intrinsic activity β3-AR (human β3-AR; TF 0.05 μg/well, isoproterenol max = 1.00, listed as solabegron): 0.91; Intrinsic activity β3-AR (human β3-AR; TF 0.1 μg/well, maximal response of isoproterenol = 1.00, listed as solabegron): 0.96
